From patent publication US5817617A, “Selectin and pertussis toxin derived peptides and uses thereof” (The Rockefeller University, priority 1994, dated 1998)
“Also recorded” adds a separate entry of the source.

Columns and labels:
alveolar macrophages = assay: Reconstitution of adherence of B. pertussis mutant BP101/TOX6 to macrophages by exogenous PT and subunits; format: cell-based; conditions: PT component 50 ug/ml coated on BP101/TOX6; 10^7 bacteria, 10^5 rabbit alveolar macrophages, 3 hours; mean ± standard deviation
Experimental: (§1) The ability of PT or the individual subunits to act as adhesins for PT-deficient bacteria to eukaryotic cells was assessed as described by Tuomanen et al (1985). Infect. Dis. 153, 118-125 and Relman et al (199) Cell 61, 1375-1382. […] For the test reported in Table 1 PT or its individual subunits (50 ug/ml) were incubated for 30 minutes with strain BPTOX6 for ciliated cell assays or BP101/TOX6 for macrophage assays in order to coat the bacteria with adhesin. 10^7 bacteria were then incubated for 3 hours with 10^5 ciliated cells or alveolar macrophages harvested from healthy rabbits (2,4). Adherence was detected by staining of the bacteria with a 1:40 dilution of fluorescein conjugated anti-Bordetella antibody (Difco, Detroit, Mich.). Values are expressed as the mean ±standard deviation of the number of bacteria per eukaryotic cell, 25 cells/test, and each test repeated in triplicate. The procedure is described in more detail in Saukkonen et al Proc. Natl. Acad. Sci. 89,118-122 (1991).

ELAM = assay: Assay 1: inhibition of adherence of neutrophils to ELAM-coated surfaces (FIG. 4); format: cell-based; conditions: protein at 50 ug/ml, compared to buffer control
Experimental: (§2) In the study, the proteins PT, B-oligomer, S2, S3, S2/S3 and S3/S2 were taken up in an isotonic buffered tissue culture medium to a concentration of 50 ug/ml and the ability of each of them to inhibit adhesion of neutrophils to ELAM or GMP140 was determined as described by Wright et al J. Exp. Med. 158:2016 (1983). The buffer was employed as the control and each protein studied was compared to the control for the ability to decrease adhesion capacity.
Assay 1 is inhibition of adherence of enutrophils to ELAM-coated surfaces as described in connection with FIG. 4. Values ±20% inhibition are significant.

[1] = Carbohydrate recognition: binding to glycolipids separated by thin layer chromatography (FIG. 3)
From the text: The variability in the S2 and S3 segments shown in FIG. 1 SEQ ID NOS:42-47 is, quite clearly responsible for the variation in carbohydrate binding properties of PT, S2 and S3 which have been observed.
The peptides S2/S3 and S3/S2 are novel therapeutic agents and are specifically included within the scope of this invention, as are the genes which express them.
In FIG. 3, the dark bars represent the positions of glycolipids after separation by thin layer chromatography in accordance with the method of Tuomanen et al, J. Exp Med 168:267, 1988.

[2] = test system: leukocytes in cerebrospinal fluid; assay: Rabbit model of pneumococcal meningitis: leukocytes in cerebrospinal fluid (FIG. 6b, 7B); format: in vivo; conditions: rabbits with established pneumococcal meningitis; intravenous PT or B-oligomer
From the text: This is shown experimentally in FIG. 6b. In the experiments rabbits with established pneumonococcal meningitis received intravenous PT or B-oligomer.
FIG. 7B illustrates the use of anti S-segment antibodies to decrease the inflammation in a rabbit model of meningitis. Rabbits with established pneumonococcal meningitis received antibodies to intact PT or PT subunits: S2:3A12, S3:6F8 and S4:9C6.

ciliated cells = assay: Reconstitution of adherence of B. pertussis mutant BPTOX6 to ciliated cells by exogenous PT and subunits; format: cell-based; conditions: PT component 50 ug/ml coated on BPTOX6; 10^7 bacteria, 10^5 rabbit ciliated cells, 3 hours; mean ± standard deviation
Experimental: as §1

GMP140 = assay: Inhibition of adhesion of neutrophils to GMP140 (FIG. 4B); format: cell-based; conditions: protein at 50 ug/ml, compared to buffer control
Experimental: as §2

Substance: pertussis toxin [PT]
- Number of bacteria/target cell, Macrophage (alveolar macrophages): 21 ± 2.3 bacteria/target cell
- inhibition of neutrophil/leukocyte adherence to ELAM (ELAM): 60%
- carbohydrates (glycolipids) recognized [1]: binds to lactosylceramide, glucosylceramide, sulfatides and gangliosides; also recorded: recognize lactosylaceramide, and gangliosides
- accumulation of leukocytes in cerebrospinal fluid [2]: decreased the accumulation of leukocytes in cerebrospinal fluid
- Number of bacteria/target cell, Ciliated Cell (ciliated cells): 6.7 ± 0.8 bacteria/target cell
- inhibition of neutrophil adhesion to GMP140 (GMP140): 30%
